Test systems include RPMI-8226 leukemia; SF-295 CNS; TK-10 renal; SNB-75 CNS; HCT-116 colon; HL-60(TB) leukemia; SK-MEL-28 melanoma; SN12C renal; SK-OV-3 ovarian; KM12 colon.
Assay in all cases: DTP human tumour cell line panel, 48 h

“And” between values parts separate entries of the source, which are not always exact repeats. Equal entries are not always repeated.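 Compound exposure: 48 hours, 5 concentrations, 96-well plates. GI50 is the concentration that inhibits growth by half. Definition used: TGI = concentration required for complete inhibition of growth.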 Some results are limits rather than exact numbers.

Take `CC1OC(n2cc(I)c(=O)[nH]c2=O)C=CC1=O` (centres undefined): the TGI (usually the concentration giving total growth inhibition) came out at 38.7 µM in the assay with RPMI-8226 leukemia; 32.5 µM with SF-295 CNS; 32.9 µM with TK-10 renal; 31.1 µM in the assay with SNB-75 CNS; 24.9 µM in the assay with HCT-116 colon; 24.6 µM in the assay with HL-60(TB) leukemia. Besides, the concentration for total growth inhibition (TGI) is 29.2 µM in the assay with SK-MEL-28 melanoma, 33.3 µM with SN12C renal, 73.2 µM with SK-OV-3 ovarian and 25.8 µM in the assay with KM12 colon.
For `N#CC(C#N)=Cc1ccc(Oc2ccccc2)cc1`, the concentration for total growth inhibition (TGI) with RPMI-8226 leukemia was 57.3 µM; with SF-295 CNS it was 59.2 µM; in the assay with TK-10 renal, greater than 100 µM; in the assay on SNB-75 CNS it was greater than 91.7 µM; in the assay on HCT-116 colon it was 44 µM; in the assay with HL-60(TB) leukemia, 55.1 µM. Besides, the TGI in the assay with SK-MEL-28 melanoma was 25.3 µM; in the assay on SN12C renal, 20.6 µM; in the assay with SK-OV-3 ovarian it was greater than 100 µM; in the assay with KM12 colon, greater than 100 µM.
For `CCCCC/C=C\C/C=C/CCCCCCCCNC(=O)Nc1ccc([N+](=O)[O-])cc1`, the GI50 (commonly the concentration giving 50% growth inhibition) is 4.54 µM in the assay on RPMI-8226 leukemia; 4.96 µM with SF-295 CNS; greater than 100 µM in the assay with TK-10 renal; 22.9 µM with SNB-75 CNS; 4.17 µM in the assay on HCT-116 colon; 19.9 µM with HL-60(TB) leukemia. The GI50 in the assay on SK-MEL-28 melanoma was 32.7 µM; in the assay with SN12C renal, 8.12 µM; with SK-OV-3 ovarian, 40.7 µM; with KM12 colon, 6.96 µM. The TGI is 39.5 µM in the assay on RPMI-8226 leukemia; greater than 100 µM in the assay on SF-295 CNS; greater than 100 µM in the assay on TK-10 renal; greater than 100 µM in the assay on SNB-75 CNS; 35.6 µM in the assay on HCT-116 colon; 47.5 µM in the assay with HL-60(TB) leukemia. The TGI in the assay on SK-MEL-28 melanoma, in the assay on SN12C renal, in the assay with SK-OV-3 ovarian and with KM12 colon was greater than 100 µM each time.
For `O=C1CCCC(=O)C1C(=O)c1ccc(C(F)(F)F)cc1[N+](=O)[O-]`, the GI50 with RPMI-8226 leukemia, in the assay on SF-295 CNS, in the assay with TK-10 renal, with SNB-75 CNS, in the assay on HCT-116 colon and in the assay on HL-60(TB) leukemia was greater than 100 µM each time. Besides, the GI50 in the assay with SK-MEL-28 melanoma, in the assay with SN12C renal, in the assay with SK-OV-3 ovarian and in the assay with KM12 colon was greater than 100 µM in each case. The total growth inhibition concentration (TGI) with RPMI-8226 leukemia, in the assay on SF-295 CNS, in the assay on TK-10 renal, in the assay with SNB-75 CNS, in the assay on HCT-116 colon and in the assay on HL-60(TB) leukemia was greater than 100 µM each time. Moreover, the TGI in the assay on SK-MEL-28 melanoma, in the assay with SN12C renal, with SK-OV-3 ovarian and in the assay with KM12 colon was greater than 100 µM in each case.
With `COc1cc([N+](=O)[O-])c(OC)cc1-c1nc2n(c1/C(N)=N/C(=N)N)CCS2`, the GI50 in the assay with RPMI-8226 leukemia is greater than 100 µM; with SF-295 CNS, 37.6 µM; in the assay with TK-10 renal, 20.3 µM; in the assay with SNB-75 CNS, 6.76 µM; with HCT-116 colon, 20.8 µM; in the assay with HL-60(TB) leukemia it was greater than 100 µM. The GI50 in the assay on SK-MEL-28 melanoma, with SN12C renal, with SK-OV-3 ovarian and in the assay with KM12 colon was greater than 100 µM throughout. In addition, the TGI in the assay on RPMI-8226 leukemia was greater than 100 µM; in the assay on SF-295 CNS it was greater than 100 µM; with TK-10 renal it was 96.4 µM; in the assay on SNB-75 CNS, greater than 100 µM; in the assay with HCT-116 colon, greater than 100 µM; with HL-60(TB) leukemia it was greater than 100 µM. In addition, the total growth inhibition concentration (TGI) in the assay on SK-MEL-28 melanoma, in the assay with SN12C renal, in the assay on SK-OV-3 ovarian and in the assay on KM12 colon was greater than 100 µM each time.
With `CCCN(CCC)c1ccc(/C=N/NC(=O)c2cccnc2)cc1`, the GI50 in the assay with RPMI-8226 leukemia is 80.5 µM; in the assay on SF-295 CNS it was 16.5 µM; in the assay with TK-10 renal it was 32.4 µM; with SNB-75 CNS, 22 µM; in the assay on HCT-116 colon, 23.5 µM; with HL-60(TB) leukemia, 22.6 µM. The GI50 was 33.6 µM with SK-MEL-28 melanoma, 40.4 µM in the assay on SN12C renal, 30.6 µM in the assay on SK-OV-3 ovarian and 20.3 µM in the assay with KM12 colon. The concentration for total growth inhibition (TGI) with RPMI-8226 leukemia was greater than 100 µM; in the assay with SF-295 CNS it was 55.6 µM; with TK-10 renal, greater than 100 µM; in the assay with SNB-75 CNS it was 68.1 µM; in the assay with HCT-116 colon, greater than 100 µM; in the assay with HL-60(TB) leukemia it was 63.7 µM. In addition, the concentration for total growth inhibition (TGI) in the assay with SK-MEL-28 melanoma, in the assay on SN12C renal, in the assay with SK-OV-3 ovarian and in the assay on KM12 colon was greater than 100 µM in each case.
With `CN1CCN(CCCN2c3ccccc3Sc3ccc(C(F)(F)F)cc32)CC1`, the GI50 with RPMI-8226 leukemia is 2.21 µM and 2.06 µM and 6.37 µM; in the assay with SF-295 CNS, 1.76 µM; with TK-10 renal it was 1.78 µM and 4.01 µM and 11.6 µM; in the assay on SNB-75 CNS it was 6.4 µM; in the assay on HCT-116 colon it was 1.78 µM; with HL-60(TB) leukemia it was 2.78 µM. In addition, the results for the GI50 in the assay on SN12C renal, with SK-OV-3 ovarian and with KM12 colon were 2.6 µM, 1.92 µM and 1.85 µM, respectively. In addition, the TGI is 5.09 µM and 22.1 µM in the assay with RPMI-8226 leukemia; 3.68 µM and 15.8 µM and 23.2 µM in the assay with SF-295 CNS; 3.23 µM and 12.1 µM and 24.8 µM with TK-10 renal; 22.7 µM and 16.8 µM and 20.8 µM in the assay on SNB-75 CNS; 3.26 µM and 17.5 µM and 20.3 µM with HCT-116 colon; 4.92 µM and 17.7 µM and 22.7 µM with HL-60(TB) leukemia. Besides, the TGI is 3.27 µM and 3.46 µM and 3.58 µM with SK-MEL-28 melanoma; 12.8 µM and 22.2 µM and 26.1 µM with SN12C renal; 4.15 µM and 27.7 µM and 28.2 µM with SK-OV-3 ovarian; 3.48 µM and 10.7 µM and 11.4 µM in the assay with KM12 colon.
Regarding `NCC(=O)NC(CO)C(=O)O` (centres undefined), the TGI in the assay with RPMI-8226 leukemia, with SF-295 CNS, in the assay on TK-10 renal, in the assay on SNB-75 CNS, with HCT-116 colon and in the assay with HL-60(TB) leukemia was greater than 100 µM in each case. Besides, the TGI in the assay on SK-MEL-28 melanoma, in the assay with SN12C renal, with SK-OV-3 ovarian and in the assay on KM12 colon was greater than 100 µM throughout.
With `O=c1[nH]c(=O)n(C2OC(CO)C(O)C2O)cc1OCc1ccccc1` (centres undefined), the TGI is greater than 73.3 µM with RPMI-8226 leukemia; greater than 100 µM in the assay with SF-295 CNS; greater than 100 µM in the assay with TK-10 renal; greater than 100 µM in the assay on SNB-75 CNS; greater than 83.2 µM in the assay on HCT-116 colon; greater than 68.6 µM with HL-60(TB) leukemia. Besides, the TGI with SK-MEL-28 melanoma, in the assay with SN12C renal, in the assay on SK-OV-3 ovarian and in the assay on KM12 colon was greater than 100 µM throughout.

Source of the values: PubChem BioAssay (NCI).
